Measurements as given in patent US10683297B2 (Sunshine Lake Pharma Co., Ltd., priority 2017, dated 2020).

Assays:
Format in all cases: biochemical
[1] = molecular target: T1, TYK2 (h) (Homo sapiens, UniProt P29597); assay: TYK2 (h) kinase assay; conditions: [γ-33P-ATP] 10 μM or KM values; 40 minutes at room temperature
T1 construct: purchased Millipore UK Ltd (assays performed there as a service)
Experimental: (§1) Kinase assays can be performed by measurement of incorporation of γ-^33P ATP into immobilized myelin basic protein (MBP). High binding white 384 well plates (Greiner) are coated with MBP (Sigma # M-1891) by incubation of 60 μL well of 20 μg/mL MBP in Tris-buffered saline (TBS; 50 mM Tris pH 8.0, 138 mM NaCl, 2.7 mM KCl) for 24 h at 4° C. Plates are washed 3× with 100 μL TBS. Kinase reactions are carried out in a total volume of 34 μL in kinase buffer (according to the need to make, for example, 5 mM Hepes pH 7.6, 15 mM NaCl, 0.01% bovine gamma globulin (Sigma #1-5506), 10 mM MgCl2, 1 mM DTT, 0.02% TritonX-100). Compound dilutions are performed in DMSO and added to assay wells to a final DMSO concentration of 1%. Each data point is measured in duplicate, and at least two duplicate assays are performed for each individual compound determination. Enzyme is added to final concentrations of 10 nM or 20 nM, for example. A mixture of unlabeled ATP and γ-^33P ATP is added to start the reaction (2×10^6 cpm of γ-^33P ATP per well (3000 Ci/mmole) and 10 μM unlabeled ATP, typically. The reactions are carried out for 1 hour at room temperature with shaking. Plates are washed 7× with TBS, followed by the addition of 50 μL well scintillation fluid (Wallac). Plates are read using a Wallac Trilux counter. This is only one format of such assays; various other formats are possible, as known to one skilled in the art.
(§2) The above assay procedure can be used to determine the IC50 for inhibition and/or the inhibition constant, Ki. […] The IC50 value is estimated by preparing a 10 point curve using a ½ log dilution series (for example, a typical curve may be prepared using the following compound concentrations: 3 μM, 1 μM, 0.3 μM, 0.1 μM, 0.03 μM, 0.01 μM, 0.003 μM, 0.001 μM, 0.0003 μM and 0 μM).
(§3) TYK2 (h) is incubated with 8 mM MOPS pH 7.0, 0.2 mM EDTA, 250 μM […], 10 mM MgAcetate and [γ-^33P-ATP] […] The reaction is initiated by the addition of the MgATP mix. After incubation for 40 minutes at room temperature, the reaction is stopped by the addition of 3% phosphoric acid solution. 10 μL of the reaction is then spotted onto a P30 filtermat and washed three times for 5 minutes in 75 mM phosphoric acid and once in methanol prior to drying and scintillation counting.
(§4) The kinase assays described herein were performed at Millipore UK Ltd, Dundee Technology Park, Dundee DD2 1SW, UK.

[2] = molecular target: T2, FLT4 (h) (Homo sapiens, UniProt P35916); assay: FLT4 (h) kinase assay; conditions: [γ-33P-ATP] 10 μM or KM values; cells tagged (Flt4); read-out: IC50 (Flt4), printed in the FLT3 (h) column
T2 construct: purchased Millipore UK Ltd (assays performed there as a service)
T2 sequence (P35916 25-1363): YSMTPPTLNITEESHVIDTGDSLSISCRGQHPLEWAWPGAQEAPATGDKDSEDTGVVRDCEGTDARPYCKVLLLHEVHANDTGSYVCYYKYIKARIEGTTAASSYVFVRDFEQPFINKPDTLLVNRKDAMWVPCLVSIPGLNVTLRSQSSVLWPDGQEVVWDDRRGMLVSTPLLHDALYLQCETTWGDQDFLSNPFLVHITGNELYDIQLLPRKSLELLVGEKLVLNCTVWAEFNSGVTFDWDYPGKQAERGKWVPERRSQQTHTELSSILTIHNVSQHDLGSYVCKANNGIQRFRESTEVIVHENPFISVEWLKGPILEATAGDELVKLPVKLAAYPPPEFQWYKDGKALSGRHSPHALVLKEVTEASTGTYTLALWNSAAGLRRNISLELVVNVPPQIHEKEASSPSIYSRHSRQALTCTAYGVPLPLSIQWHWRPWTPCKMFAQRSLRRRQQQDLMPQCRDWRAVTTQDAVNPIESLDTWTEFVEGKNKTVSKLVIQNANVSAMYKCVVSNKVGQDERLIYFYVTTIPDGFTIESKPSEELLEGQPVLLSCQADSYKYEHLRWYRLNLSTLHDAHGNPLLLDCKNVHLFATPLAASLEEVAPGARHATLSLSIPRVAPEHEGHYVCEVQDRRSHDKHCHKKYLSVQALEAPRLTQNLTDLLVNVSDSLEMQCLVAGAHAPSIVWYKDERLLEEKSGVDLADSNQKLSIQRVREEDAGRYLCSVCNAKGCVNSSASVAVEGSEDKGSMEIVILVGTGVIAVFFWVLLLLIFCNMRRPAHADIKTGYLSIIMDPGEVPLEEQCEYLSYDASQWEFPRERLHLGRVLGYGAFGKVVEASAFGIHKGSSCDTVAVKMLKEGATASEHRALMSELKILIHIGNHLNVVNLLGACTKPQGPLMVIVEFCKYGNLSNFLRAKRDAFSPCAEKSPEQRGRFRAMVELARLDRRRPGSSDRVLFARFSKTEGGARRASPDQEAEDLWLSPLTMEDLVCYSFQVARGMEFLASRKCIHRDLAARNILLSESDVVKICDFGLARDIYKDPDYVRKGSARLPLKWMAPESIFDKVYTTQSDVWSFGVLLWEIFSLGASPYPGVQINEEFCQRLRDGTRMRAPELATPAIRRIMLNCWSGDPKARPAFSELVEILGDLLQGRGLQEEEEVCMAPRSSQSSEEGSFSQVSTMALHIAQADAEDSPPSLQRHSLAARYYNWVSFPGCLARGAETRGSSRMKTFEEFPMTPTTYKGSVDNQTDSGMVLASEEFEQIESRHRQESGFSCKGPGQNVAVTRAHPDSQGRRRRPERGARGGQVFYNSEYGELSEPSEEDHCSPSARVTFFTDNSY
Experimental: as §1, §2
as §3, with “FLT4” for “TYK2”, “50” for “250”
as §4

[3] = molecular target: T3, JAK3 (h) (Homo sapiens, UniProt P52333); assay: JAK3 (h) kinase assay; conditions: [γ-33P-ATP] 10 μM or KM values; 40 minutes at room temperature
T3 construct: purchased Millipore UK Ltd (assays performed there as a service)
T3 sequence (P52333 1-1124): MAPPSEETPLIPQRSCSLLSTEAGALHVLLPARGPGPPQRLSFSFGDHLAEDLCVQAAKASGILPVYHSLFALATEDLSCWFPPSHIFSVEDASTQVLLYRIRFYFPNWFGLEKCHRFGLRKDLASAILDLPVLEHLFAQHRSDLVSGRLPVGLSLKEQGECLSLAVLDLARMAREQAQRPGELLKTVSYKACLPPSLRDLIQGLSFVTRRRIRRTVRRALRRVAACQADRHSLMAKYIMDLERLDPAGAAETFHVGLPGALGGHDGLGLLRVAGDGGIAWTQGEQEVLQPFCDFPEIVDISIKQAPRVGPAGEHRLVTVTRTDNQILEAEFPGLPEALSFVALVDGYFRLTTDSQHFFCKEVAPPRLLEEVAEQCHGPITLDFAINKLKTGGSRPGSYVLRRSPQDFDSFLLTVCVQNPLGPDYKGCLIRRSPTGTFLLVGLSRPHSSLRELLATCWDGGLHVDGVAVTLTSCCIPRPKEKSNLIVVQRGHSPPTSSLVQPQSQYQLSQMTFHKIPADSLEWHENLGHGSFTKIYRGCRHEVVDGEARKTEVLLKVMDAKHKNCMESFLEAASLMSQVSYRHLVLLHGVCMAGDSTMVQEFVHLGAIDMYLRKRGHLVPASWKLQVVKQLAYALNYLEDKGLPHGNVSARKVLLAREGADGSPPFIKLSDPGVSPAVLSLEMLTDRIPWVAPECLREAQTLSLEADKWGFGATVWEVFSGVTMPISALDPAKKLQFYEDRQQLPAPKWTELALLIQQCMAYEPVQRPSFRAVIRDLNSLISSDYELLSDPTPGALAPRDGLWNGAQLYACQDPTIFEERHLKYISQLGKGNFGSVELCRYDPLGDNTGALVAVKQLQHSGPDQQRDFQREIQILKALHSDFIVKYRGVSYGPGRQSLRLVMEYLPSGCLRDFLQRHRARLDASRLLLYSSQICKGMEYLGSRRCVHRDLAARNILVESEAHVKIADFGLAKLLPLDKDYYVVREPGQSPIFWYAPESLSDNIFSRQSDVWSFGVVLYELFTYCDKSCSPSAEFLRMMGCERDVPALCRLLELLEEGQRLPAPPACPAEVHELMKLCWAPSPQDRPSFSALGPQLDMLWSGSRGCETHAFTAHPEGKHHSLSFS
Experimental: as §1, §2
[…] The reaction is initiated by the addition of the MgATP mix. After incubation for 40 minutes at room temperature, the reaction is stopped by the addition of 3% phosphoric acid solution. 10 μL of the reaction is then spotted onto a P30 filtermat and washed three times for 5 minutes in 75 mM phosphoric acid and once in methanol prior to drying and scintillation counting.
as §4

T1 sequence (P29597 whole entry): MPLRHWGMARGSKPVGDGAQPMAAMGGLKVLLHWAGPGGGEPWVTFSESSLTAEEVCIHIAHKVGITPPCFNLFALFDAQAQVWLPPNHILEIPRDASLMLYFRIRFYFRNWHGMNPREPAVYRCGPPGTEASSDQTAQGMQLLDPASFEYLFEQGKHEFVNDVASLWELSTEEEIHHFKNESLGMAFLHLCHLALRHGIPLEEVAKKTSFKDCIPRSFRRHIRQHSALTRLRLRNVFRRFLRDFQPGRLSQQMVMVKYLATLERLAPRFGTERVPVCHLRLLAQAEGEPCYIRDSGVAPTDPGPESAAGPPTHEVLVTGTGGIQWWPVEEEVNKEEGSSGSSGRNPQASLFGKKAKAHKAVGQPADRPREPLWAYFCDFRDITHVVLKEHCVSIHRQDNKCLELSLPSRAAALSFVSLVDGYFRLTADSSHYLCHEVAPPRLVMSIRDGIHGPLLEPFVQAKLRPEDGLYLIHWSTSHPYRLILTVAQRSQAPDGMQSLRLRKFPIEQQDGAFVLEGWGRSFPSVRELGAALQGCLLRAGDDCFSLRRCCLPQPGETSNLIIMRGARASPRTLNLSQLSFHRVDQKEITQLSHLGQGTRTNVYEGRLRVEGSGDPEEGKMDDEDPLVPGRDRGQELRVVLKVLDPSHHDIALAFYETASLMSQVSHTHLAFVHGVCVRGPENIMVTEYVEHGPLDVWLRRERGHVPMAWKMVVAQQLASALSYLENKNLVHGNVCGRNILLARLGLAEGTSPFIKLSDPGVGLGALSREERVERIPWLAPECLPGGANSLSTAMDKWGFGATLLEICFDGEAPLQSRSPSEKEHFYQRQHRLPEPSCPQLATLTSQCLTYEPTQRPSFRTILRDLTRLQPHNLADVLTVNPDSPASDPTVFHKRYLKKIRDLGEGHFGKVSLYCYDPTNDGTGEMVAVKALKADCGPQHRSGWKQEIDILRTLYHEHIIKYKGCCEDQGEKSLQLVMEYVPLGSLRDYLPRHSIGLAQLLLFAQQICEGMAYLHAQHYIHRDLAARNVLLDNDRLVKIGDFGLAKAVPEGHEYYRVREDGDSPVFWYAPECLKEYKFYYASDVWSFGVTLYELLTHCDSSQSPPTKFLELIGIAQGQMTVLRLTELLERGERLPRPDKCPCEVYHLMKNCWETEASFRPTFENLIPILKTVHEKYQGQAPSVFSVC

Row | Structure (SMILES) | IC50 [1] | IC50 [2] | IC50 [3]
1 | CC(C)(O)Cc1nc2cc(Nc3ncc(Cl)c(NC4CCN(c5ccc(C#N)cn5)CC4)n3)ccn2n1 [Example 78, 6-(4-((5-chloro-2-((2-(2-hydroxy-2-methylpropyl)-[1,2,4]triazolo[1,5-a]pyridin-7-yl)amino)pyrimidin-4-yl)amino)piperidin-1-yl)nicotinonitrile] | 5 nM | 117 nM | 344 nM
2 | N#Cc1ccc(N2CCC(Nc3nc(Nc4ccn5c(C(F)F)nnc5c4)ncc3Cl)CC2)nc1 [Example 30, 6-(4-((5-chloro-2-((3-(difluoromethyl)-[1,2,4]triazolo[4,3-a]pyridin-7-yl)amino)pyrimidin-4-yl)amino)piperidin-1-yl)nicotinonitrile] | 4 nM |  | 127 nM
3 | CC(C)(O)Cc1cn2cc(Nc3ncc(Cl)c(NC4CCN(c5ccc(C#N)cn5)CC4)n3)ccc2n1 [Example 73, 6-(4-((5-chloro-2-((2-(2-hydroxy-2-methylpropyl)imidazo[1,2-a]pyridin-6-yl)amino)pyrimidin-4-yl)amino)piperidin-1-yl)nicotinonitrile] |  | 87 nM | 112 nM
4 | CC(C)(O)Cc1nc2ccc(Nc3ncc(Cl)c(NC4CCN(c5ccc(C#N)cn5)CC4)n3)cn2n1 [Example 67, 6-(4-((5-chloro-2-((2-(2-hydroxy-2-methylpropyl)-[1,2,4]triazolo[1,5-a]pyridin-6-yl)amino)pyrimidin-4-yl)amino)piperidin-1-yl)nicotinonitrile] | 8 nM | 113 nM | 
5 | CC(C)(O)Cn1nnc2cc(Nc3ncc(Cl)c(NC4CCN(c5ccc(C#N)cn5)CC4)n3)ccc21 [Example 69, 6-(4-((5-chloro-2-((1-(2-hydroxy-2-methylpropyl)-1H-benzo[d][1,2,3]triazol-5-yl)amino)pyrimidin-4-yl)amino)piperidin-1-yl)nicotinonitrile] | 0.7 nM | 15 nM | 5 nM
6 | Cc1nc2cc(Nc3ncc(Cl)c(NC4CCN(c5ccc(C#N)cn5)CC4)n3)ccn2n1 [Example 32, 6-(4-((5-chloro-2-((2-methyl-[1,2,4]triazolo[1,5-a]pyridin-7-yl)amino)pyrimidin-4-yl)amino)piperidin-1-yl)nicotinonitrile] | 2 nM |  | 60 nM

The remaining lines, values ahead:

Row | IC50 [1] | IC50 [2] | IC50 [3] | Structure (SMILES)
7 |  | 202 nM | 202 nM | CC(C)(O)Cc1nnc2cc(Nc3ncc(Cl)c(NC4CCN(c5ccc(C#N)nn5)CC4)n3)ccn12 [Example 75, 6-(4-((5-chloro-2-((3-(2-hydroxy-2-methylpropyl)-[1,2,4]triazolo[4,3-a]pyridin-7-yl)amino)pyrimidin-4-yl)amino)piperidin-1-yl)pyridazine-3-carbonitrile]
8 | 9 nM | 166 nM | 353 nM | CC(C)(O)Cc1nc2cc(Nc3ncc(Cl)c(NC4CCN(c5ccc(C#N)nn5)CC4)n3)ccn2n1 [Example 77, 6-(4-((5-chloro-2-((2-(2-hydroxy-2-methylpropyl)-[1,2,4]triazolo[1,5-a]pyridin-7-yl)amino)pyrimidin-4-yl)amino)piperidin-1-yl)pyridazine-3-carbonitrile]
9 |  | 57 nM | 64 nM | CC(C)(O)Cc1nnc2cc(Nc3ncc(Cl)c(NC4CCN(c5ccc(C#N)cn5)CC4)n3)ccn12 [Example 74, 6-(4-((5-chloro-2-((3-(2-hydroxy-2-methylpropyl)-[1,2,4]triazolo[4,3-a]pyridin-7-yl)amino)pyrimidin-4-yl)amino)piperidin-1-yl)nicotinonitrile]
10 | 0.9 nM | 20 nM | 5 nM | CC(O)Cn1cnc2cc(Nc3ncc(Cl)c(NC4CCN(c5ccc(C#N)cn5)CC4)n3)ccc21 (centres unmarked) [Example 61, 6-(4-((5-chloro-2-((1-(2-hydroxypropyl)-1H-benzo[d]imidazol-5-yl)amino)pyrimidin-4-yl)amino)piperidin-1-yl)nicotinonitrile]
11 |  | 95 nM | 291 nM | CC(C)(O)c1nc2cc(Nc3ncc(Cl)c(NC4CCN(c5ccc(C#N)nn5)CC4)n3)ccn2n1 [Example 55, 6-(4-((5-chloro-2-((2-(2-hydroxypropan-2-yl)-[1,2,4]triazolo[1,5-a]pyridin-7-yl)amino)pyrimidin-4-yl)amino)piperidin-1-yl)pyridazine-3-carbonitrile]
